Data as given in US20190369111A1, “MOLECULAR KINETICS EVALUATION METHOD AND SCREENING METHOD” (Tokyo University of Science Foundation, priority 2016, published 2019).

Target: T1, MDM2 protein (Homo sapiens, UniProt Q00987)
T1 construct: an endogenous wild-type p53 protein and MDM2 protein in HCT116 cells (human large intestine cancer cells); endogenous in cells; host or cells: HCT116 cells
Test: Degradation of endogenous MDM2 protein in HCT116 cells, Western blot analysis
Type: cell-based
Conditions: 48 hours after addition
Description: HCT116 cells were seeded in a 24-well plate at a cell density of 8×10^4 cells/well, and then cultured under conditions of 37° C. and 5 vol % CO2 for 16 hours.
After 16 hours from cell seeding, TIBC-CANDDY_MLN or TIBC was added to HCT116 cells as follows. As a medium, a serum-free medium (37° C.) in which 1 mass % L-glutamine solution (Sigma-Aldrich) was added to D-MEM (high D-glucose, phenol red, sodium pyruvate (Wako Pure Chemical Industries, Ltd.)) was used. It is noted that the L-glutamine solution was added immediately before use. A DMSO solution containing TIBC-CANDDY_MLN or TIBC was mixed with the medium so that the concentration of DMSO was 1 vol %, and added to each well at 500 μL/well, and cultured under conditions of 37° C. and 5 vol % CO2. As a control, DMSO was used.
The medium was removed 48 hours after addition of TIBC-CANDDY_MLN or TIBC, and then PBS was added to wash the cells. […]
After electrophoresis, proteins were transferred to a PVDF membrane (Immobion™-P, Millipore) under conditions of 100 V and 2 hours using a tank-type blotting device and a transfer buffer (25 mM Tris-HCl, 195 mM glycine, 0.01% SDS, 15% methanol). […] Subsequently, the membrane was treated with a chemiluminescence reagent Immobilon™ Western (Millipore), and then chemiluminescence was detected using a lumino image analyzer LAS-3000 (FUJIFILM Corporation).

T1 sequence (Q00987 whole entry): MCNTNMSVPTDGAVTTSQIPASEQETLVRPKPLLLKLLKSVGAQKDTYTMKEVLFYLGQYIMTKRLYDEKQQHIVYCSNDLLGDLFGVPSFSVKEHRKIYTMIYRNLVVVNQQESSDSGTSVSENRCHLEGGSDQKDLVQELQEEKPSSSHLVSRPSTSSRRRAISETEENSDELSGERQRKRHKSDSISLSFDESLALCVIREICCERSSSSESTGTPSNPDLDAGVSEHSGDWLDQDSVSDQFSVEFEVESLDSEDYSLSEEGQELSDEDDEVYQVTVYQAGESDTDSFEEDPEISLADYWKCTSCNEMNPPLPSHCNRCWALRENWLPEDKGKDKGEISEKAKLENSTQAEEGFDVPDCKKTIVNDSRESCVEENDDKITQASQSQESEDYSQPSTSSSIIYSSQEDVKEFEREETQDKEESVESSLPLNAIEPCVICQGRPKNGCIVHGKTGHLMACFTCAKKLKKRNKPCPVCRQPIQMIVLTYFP

amount of endogenous MDM2 protein: reduced
SMILES: CC(C)C[C@H](NC(=O)CNC(=O)c1cc(Cl)ccc1Cl)C(=O)NCCCCCCC(=O)Nc1ccc(C(=O)/C=C/c2ccc(I)cc2)cc1 [TIBC-CANDDY_MLN]
